“Also recorded” adds a separate entry of the source. Like-named read-outs stand apart in the source and are kept apart here. Values belong to the compound of their own block, whether it stands above or below them.
Assays:
[1] = cited from earlier work; for pKa* pseudo: excited state, photoluminescence titration, Henderson-Hasselbalch analysis; for pKa: ground state
[2] = Ground-state and excited-state acidities of aromatic-amine-based photoacids (Table 1); settings: pKa* pseudo minus pKa
Description: Because the Henderson-Hasselbalch equation is derived for proton-transfer reactions at thermal and chemical equilibrium, it is agnostic to whether the ESPT acceptor species are H2O(l) or OH^−(aq), but it does require that the system has reached excited-state quasi-equilibrium.
Observed rate constants can be determined for excited-state proton transfer from weak photoacids to a series of proton-accepting quenchers.

[3] = Acid-base titration of aqueous photoacid with absorption and steady-state photoluminescence detection (Henderson-Hasselbalch / Stern-Volmer fits, OH− as quencher); settings: for bimolecular rate constant k+q,ss,OH−: steady-state data, forward direction of Reaction 1 with B=OH−(aq); for predicted pK*a pseudo (Equation 5): from bimolecular rate constant and excited-state lifetime
Description: FIGS. 2A through 2C illustrate acid-base titration of an aqueous solution of NS—NH2 photoacid with absorption and photoluminescence detection in accordance with an embodiment.
where aOH− is the activity of OH^−(aq), K*b pseudo is an erroneous observed equilibrium constant for base dissociation and KSV,OH− is the Stern-Volmer quenching constant, which is strictly dimensionless but reported here in units of M^−1 to be consistent with its typical usage. Unlike the Henderson-Hasselbalch equation, the Stern-Volmer equation is also applicable to non-equilibrium processes.
and KSV,OH−=k+q,OH−τo,PAH*, where τ is the excited-state lifetime (s) of NS—NH2* in the absence (τo,PAH*) or presence (τPAH*) of OH^− quencher and k+q,OH− is the bimolecular rate constant (M^−1 s^−1) for quenching of NS—NH2* by OH^− (forward direction of Reaction 1 with B=OH^−(aq)).
Several embodiments use the steady-state ultraviolet-visible electronic absorption and photoluminescence spectroscopy for characterization. Equal amounts of aromatic amine photoacids are portioned into five separate 100 mL volumetric flasks. For the non-proton-accepting quencher experiments, the five flasks are filled to the volumetric marker with aqueous solutions of 1 M HCl, 1 M KOH, 2 M KOH, 3 M KOH, and 4 M KOH. The aqueous 1 M KOH solution is titrated with the aqueous 1 M HCl solution to reach the desired pH values from 14 to 6, and the H^+ activities are measured using a pH meter (pH/Ion 510). […] Electronic absorption spectra and photoluminescence spectra are acquired using absorbance and fluorescence spectrometer(s), using a square-bottom quartz cuvette (1 cm path length) at room temperature. Electronic absorption spectra are baselined on a spectrum of deionized water and were corrected for scattering of light. Photoluminescence spectra are recorded by exciting with 310 nm light, slit widths for the excitation and emission monochromators were set to 5 nm, and the PMT detector voltage is set to 600 V. Photoluminescence spectra are corrected for changes in solution refractive index, inner filter effects and the wavelength-dependent correction factor of the fluorimeter. For experiments that use non-OH^− proton-accepting quenchers, equal amounts of the quencher are added to the dry volumetric flask intended to form the acidic and basic aqueous photoacid solutions, to prevent changes in total quencher concentration during the titration, and titrations are performed similarly to those in the absence of added proton-accepting quenchers. Although the total quencher concentration is kept constant throughout the titration, the activity of the deprotonated quencher species varied as a function of solution pH according to Equation 3. Ionic strength is matched at the most alkaline pH values; however, it is experimentally difficult to maintain the same ionic strength throughout the titration. Normalized photoluminescence intensities as a function of solution pH are obtained by dividing the corrected photoluminescence intensities at the wavelength of maximum photoluminescence to the maximum corrected photoluminescence intensity at the same wavelength.

[4] = Stability of dye fluorescence near an operating gas diffusion electrode

Compound: COC(=O)c1ccc(N)nc1 [methyl-6-aminonicotinate]
- pKa* pseudo [1]: 11.1

- ΔpKa pseudo [2]: < −3.1
Compound: Nc1cc2ccccc2cc1N [2,3-diaminonaphthalene]
- pKa* pseudo [1]: 12.9
- pKa [1]: >16

Compound: c1ccc2c(c1)[nH]c1ccccc12 [carbazole]
- ΔpKa pseudo [2]: −9.2
- pKa* pseudo [1]: 11.9

Compound: Nc1cc(S(=O)(=O)[O-])c2ccc3c(S(=O)(=O)[O-])cc(S(=O)(=O)[O-])c4ccc1c2c43.[Na+].[Na+].[Na+] [APTS, 8-aminopyrene-1,3,6-trisulfonic acid trisodium salt]
- pKa [3]: > 14
- bimolecular rate constant k+q,ss,OH− [3]: (2.992±0.004)×10^9 M^−1 s^−1
- pK*a pseudo (Henderson-Hasselbalch fit) ([3]; steady-state photoluminescence titration, global fit of two trials): 12.83±0.01
- colour of stock solution after exposure ([4]; 10 mM stock solution exposed to −100 mA/cm^2 for 30 minutes): from bright green to brown
- photoluminescence intensity during GDE operation ([4]; high current densities (magnitudes >80 mA/cm^2), trisodium salt): degrades and slowly loses its fluorescence; also recorded: decrease in photoluminescence intensity
- steady-state photoluminescence spectrum versus dissolved inorganic carbon ([4]; increasing concentration of dissolved inorganic carbon): minimal change in intensity
- calibration curve after degradation versus fresh solutions ([4]; stock solution exposed to −100 mA/cm^2 for 5 minutes): nearly identical
- degradation, pH 7.1 versus pH 3 solution ([4]; with and without light): degradation effect is more pronounced for the pH 3 solution

- ΔpKa pseudo [2]: < −1.4
Compound: Nc1ccc2c(c1)C(=O)c1ccc(N)cc1C2=O [2,6-diaminoanthraquinone]
- pKa* pseudo [1]: 14.2
- pKa [1]: >15.6

- ΔpKa pseudo [2]: −4.2
Compound: O=C(O)c1cccc2[nH]ccc12 [indole-4-carboxylic acid]
- pKa* pseudo [1]: 12.2
- pKa [1]: 16.4

- ΔpKa pseudo [2]: −4.6
Compound: O=C(O)c1ccc2[nH]ccc2c1 [indole-5-carboxylic acid]
- pKa* pseudo [1]: 12.3
- pKa [1]: 16.9

Compound: 2-aminonaphthalene-6-sulfonate
- pKa* pseudo [1]: 11.86

Compound: Nc1ccc(C(=O)O)cn1 [6-aminonicotinic acid]
- pKa* pseudo [1]: 14.2

- ΔpKa pseudo [2]: < 3.2
Compound: Nc1cc2ccccc2cc1C(=O)O [2-amino-3-naphthoic acid]
- pKa* pseudo [1]: 12.8
- pKa [1]: >16

Compound: CNc1ccccc1-c1nc2ccccc2n1C [2-(2′-N-methyl-aminophenyl)-N-methylbenzimidazole]
- pKa* pseudo [1]: 12.2

Compound: Nc1ccc(Oc2ccc(N)cc2)cc1 [bis(4-aminophenyl)ether]
- pKa* pseudo [1]: 11.2

- ΔpKa pseudo [2]: < −4.8
Compound: Nc1ccc(Nc2ccccc2)cc1 [4-aminodiphenylamine]
- pKa* pseudo [1]: 11.2
- pKa [1]: >16.0

- ΔpKa pseudo [2]: −4.2
Compound: O=C(O)c1cc2ccccc2[nH]1 [indole-2-carboxylic acid]
- pKa* pseudo [1]: 12.9
- pKa [1]: 17.1

Compound: Nc1ccc2ccccc2c1 [2-naphthylamine]
- ΔpKa pseudo [2]: −3.2
- pKa* pseudo [1]: 11.75
- pKa [1]: 14.95

Compound: Nc1ccc2c(c1)Cc1ccccc1-2 [2-aminofluorene]
- pKa* pseudo [1]: 13.0

- ΔpKa pseudo [2]: < −0.7
Compound: Nc1ccc(Nc2ccc(N)cc2)cc1 [4,4′-diaminodiphenylamine]
- pKa* pseudo [1]: 13.5
- pKa [1]: >14.2

- ΔpKa pseudo [2]: −2.1
Compound: Nc1ccc2[nH]ccc2c1 [5-aminoindole]
- pKa* pseudo [1]: 14
- pKa [1]: 16.1

Compound: O=S(=O)([O-])c1cccc2cccc(Nc3ccccc3)c12.[Na+] [sodium 8-anilinonaphthalene-1-sulfonate, 8-anilinonaphthalene-1-sulfonic acid sodium salt]
- predicted pK*a pseudo (Equation 5) [3]: 13.92±0.04
- bimolecular rate constant k+q,ss,OH− [3]: (48±4)×10^8 M^−1 s^−1
- KSV,ss,OH− (linearized Stern-Volmer) ([3]; steady-state photoluminescence, traditional linearized Stern-Volmer fit, OH−(aq) quencher): 1.2 ± 0.1 M⁻¹

- pKa ([3]; aqueous solution, pKa of the aliphatic primary amine, multi-quencher Stern-Volmer fit): 10.06 ± 0.02
- predicted pK*a pseudo (Equation 5) [3]: 12.53±0.06
Compound: NCCNc1cccc2c(S(=O)(=O)[O-])cccc12.[Na+] [EDANS, 5-((2-aminoethyl)amino)naphthalene-1-sulfonic acid sodium salt]
- unimolecular rate constant ([3]; excited-state deprotonation by the aliphatic primary amine): (0.95±0.01)×10^8 s^−1
- KSV,NH2 ([3]; excited-state deprotonation by the aliphatic primary amine (intramolecular)): 1.20 ± 0.02 M⁻¹
- bimolecular rate constant k+q,ss,OH− [3]: (23±1)×10^8 M^−1 s^−1
- KSV,ss,OH− ([3]; steady-state photoluminescence, non-linear Stern-Volmer fit, OH−(aq) quencher): 30 ± 1 M⁻¹

Compound: Nc1ccc2c(c1)Cc1cc(N)ccc1-2 [2,7-diaminofluorene]
- ΔpKa pseudo [2]: < −2.1
- pKa* pseudo [1]: 13.9
- pKa [1]: >16

Compound: Nc1cc2ccccc2c2ccccc12 [9-phenanthrylamine]
- ΔpKa pseudo [2]: < −1.82
- pKa* pseudo [1]: 12.18
- pKa [1]: >14

- ΔpKa pseudo [2]: < −1.7
Compound: Nc1cccc2c1C(=O)c1cccc(N)c1C2=O [1,5-diaminoanthraquinone]
- pKa* pseudo [1]: 12.3
- pKa [1]: >14

Compound: COc1ccc(N)cc1 [p-anisidine]
- ΔpKa pseudo [2]: < −2.7
- pKa* pseudo [1]: 13.3
- pKa [1]: >16

Compound: COc1cccc(N)c1 [m-anisidine]
- pKa* pseudo [1]: 13.7
- pKa [1]: >16

Compound: Nc1cccc(-c2ccccc2)c1 [3-aminobiphenyl]
- ΔpKa pseudo [2]: < −3.0
- pKa* pseudo [1]: 12.0
- pKa [1]: >15.0

- ΔpKa pseudo [2]: −2.3
Compound: COc1n[nH]c2ccccc12 [3-methoxyindazole]
- pKa* pseudo [1]: 11.7
- pKa [1]: 14.0

Compound: Nc1cnc2ccccc2c1 [3-aminoquinoline]
- pKa* pseudo [1]: 12.1

Compound: Nc1cc2c3ccccc3ccc2c2ccccc12 [6-aminochrysene]
- ΔpKa pseudo [2]: < −1.4
- pKa* pseudo [1]: 12.6
- pKa [1]: >14

- ΔpKa pseudo [2]: −0.3
Compound: c1ccc(-c2cc(-c3ccccc3)[nH]n2)cc1 [3,5-diphenylpyrazole]
- pKa* pseudo [1]: 12.64
- pKa [1]: 12.94

- ΔpKa pseudo [2]: −2.5
Compound: O=C(O)c1c[nH]c2ccccc12 [indole-3-carboxylic acid]
- pKa* pseudo [1]: 13.1
- pKa [1]: 15.6

Compound: Nc1ccc(-c2ccccc2)cc1 [4-aminobiphenyl]
- ΔpKa pseudo [2]: < −1.25
- pKa* pseudo [1]: 14.25
- pKa [1]: >15.5

Compound: Nc1ccccc1-c1ccccc1 [2-aminobiphenyl]
- ΔpKa pseudo [2]: < −2.9
- pKa* pseudo [1]: 12.1
- pKa [1]: >15.0
